Data taken from PubChem BioAssay AID2060611 (Molecular Pharmacology Branch, DTP, NCI, 2025).
Several values for one entry are separate records, joined by “and”; a condition that tells them apart may be missing. Equal values may be shown once.

Tested on: 628569-122-R-J1-PDC complex spheroid viability
Experiment: Anticancer human tumor 628569-122-R-J1-PDC patient-derived head and neck squamous carcinoma cell line growth inhibition [CLK]
Conditions: for viability, T/C: stronger effect = lower value
Outline: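 Multi-cell-type spheroids combined patient-derived tumor cells with HUVEC endothelial cells and human mesenchymal stem cells. Paired agents were dosed in half-log steps down from about clinical Cmax, or from 10 microM where Cmax was unknown.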

[1] = curve of first compound, second compound 0.0316 µM
[2] = curve of first compound, second compound 0.1 µM
[3] = curve of first compound, second compound 0.316 µM
[4] = curve of first compound, second compound 1 µM
[5] = curve of first compound, second compound 3.16 µM
[6] = curve of first compound, second compound 10 µM
[7] = second compound 0.0316 µM, first compound 0.0316 µM
[8] = second compound 0.0316 µM, first compound 0.1 µM
[9] = second compound 0.0316 µM, first compound 0.316 µM
[10] = second compound 0.0316 µM, first compound 1 µM
[11] = second compound 0.0316 µM, first compound 3.16 µM
[12] = second compound 0.0316 µM, first compound 10 µM
[13] = second compound 0.1 µM, first compound 0.0316 µM
[14] = second compound 0.1 µM, first compound 0.1 µM
[15] = second compound 0.1 µM, first compound 0.316 µM
[16] = second compound 0.1 µM, first compound 1 µM
[17] = second compound 0.1 µM, first compound 3.16 µM
[18] = second compound 0.1 µM, first compound 10 µM
[19] = second compound 0.316 µM, first compound 0.0316 µM
[20] = second compound 0.316 µM, first compound 0.1 µM
[21] = second compound 0.316 µM, first compound 0.316 µM
[22] = second compound 0.316 µM, first compound 1 µM
[23] = second compound 0.316 µM, first compound 3.16 µM
[24] = second compound 0.316 µM, first compound 10 µM
[25] = second compound 1 µM, first compound 0.0316 µM
[26] = second compound 1 µM, first compound 0.1 µM
[27] = second compound 1 µM, first compound 0.316 µM
[28] = second compound 1 µM, first compound 1 µM
[29] = second compound 1 µM, first compound 3.16 µM
[30] = second compound 1 µM, first compound 10 µM
[31] = second compound 3.16 µM, first compound 0.0316 µM
[32] = second compound 3.16 µM, first compound 0.1 µM
[33] = second compound 3.16 µM, first compound 0.316 µM
[34] = second compound 3.16 µM, first compound 1 µM
[35] = second compound 3.16 µM, first compound 3.16 µM
[36] = second compound 3.16 µM, first compound 10 µM
[37] = second compound 10 µM, first compound 0.0316 µM
[38] = second compound 10 µM, first compound 0.1 µM
[39] = second compound 10 µM, first compound 0.316 µM
[40] = second compound 10 µM, first compound 1 µM
[41] = second compound 10 µM, first compound 3.16 µM
[42] = second compound 10 µM, first compound 10 µM
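Also: spheroids exposed to agents for seven days before readout.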
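For viability, T/C in this document: 100% = DMSO vehicle control viability.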

C=CC(=O)N1CCN(c2nc(=O)n(-c3c(C)ccnc3C(C)C)c3nc(-c4c(O)cccc4F)c(F)cc23)C(C)C1 (stereo unspecified) + CNC(=O)c1ccc(Nc2nc(OC3CCCC3)c3c(-c4ccc5nc(C)oc5c4)c[nH]c3n2)c(OC)c1
IC50 [1]: > 10 µM
IC50 [2]: > 10 µM
IC50 [3]: > 10 µM
IC50 [4]: < 0.0316 µM
IC50 [5]: < 0.0316 µM
IC50 [6]: < 0.0316 µM
viability, T/C [7]: 80%
viability, T/C [8]: 105%
viability, T/C [9]: 84.1%
viability, T/C [10]: 105%
viability, T/C [11]: 127%
viability, T/C [12]: 125%
viability, T/C [13]: 61.9%
viability, T/C [14]: 64.2%
viability, T/C [15]: 60%
viability, T/C [16]: 59.7%
viability, T/C [17]: 75.8%
viability, T/C [18]: 81.1%
viability, T/C [19]: 52.6%
viability, T/C [20]: 59.9%
viability, T/C [21]: 60.2%
viability, T/C [22]: 62.9%
viability, T/C [23]: 63.7%
viability, T/C [24]: 67%
viability, T/C [25]: 49.9%
viability, T/C [26]: 47%
viability, T/C [27]: 47.1%
viability, T/C [28]: 58.4%
viability, T/C [29]: 59.6%
viability, T/C [30]: 59.8%
viability, T/C [31]: 39.7%
viability, T/C [32]: 45.9%
viability, T/C [33]: 51.5%
viability, T/C [34]: 50.4%
viability, T/C [35]: 54.7%
viability, T/C [36]: 53%
viability, T/C [37]: 48.6%
viability, T/C [38]: 37.7%
viability, T/C [39]: 47.1%
viability, T/C [40]: 44.9%
viability, T/C [41]: 44.7%
viability, T/C [42]: 44%

CC1COCCN1c1cc(C2(S(C)(=N)=O)CC2)nc(-c2ccnc3[nH]ccc23)n1 (stereo unspecified)
viability, T/C (compound 0.0316 µM): 106% and 94.9%
viability, T/C (compound 0.1 µM): 89.1% and 89.6%
viability, T/C (compound 0.316 µM): 102% and 68.9%
viability, T/C (compound 1 µM): 65.9% and 50.8%
viability, T/C (compound 3.16 µM): 42.5% and 40.7%
viability, T/C (compound 10 µM): 33.7% and 33.3%
IC50 (curve of compound): 1.93 µM and 1.08 µM

CC1COCCN1c1cc(C2(S(C)(=N)=O)CC2)nc(-c2ccnc3[nH]ccc23)n1 (stereo unspecified) + CN1CCN(c2cc(C(=O)Nc3cc4cc(-c5cnn(C)c5)ccc4cn3)ccn2)CC1
IC50 [1]: 2.62 µM
IC50 [2]: 1.42 µM
IC50 [3]: < 0.0316 µM
IC50 [4]: < 0.0316 µM
IC50 [5]: < 0.0316 µM
IC50 [6]: < 0.0316 µM
viability, T/C [7]: 101%
viability, T/C [8]: 95.9%
viability, T/C [9]: 79.1%
viability, T/C [10]: 60.8%
viability, T/C [11]: 45.9%
viability, T/C [12]: 46.1%
viability, T/C [13]: 68.2%
viability, T/C [14]: 75.6%
viability, T/C [15]: 59%
viability, T/C [16]: 53.6%
viability, T/C [17]: 45.4%
viability, T/C [18]: 41.2%
viability, T/C [19]: 34.3%
viability, T/C [20]: 41.9%
viability, T/C [21]: 36%
viability, T/C [22]: 38.4%
viability, T/C [23]: 27.2%
viability, T/C [24]: 24.7%
viability, T/C [25]: 9.71%
viability, T/C [26]: 9.35%
viability, T/C [27]: 7.68%
viability, T/C [28]: 7.29%
viability, T/C [29]: 7.44%
viability, T/C [30]: 10.3%
viability, T/C [31]: 8.58%
viability, T/C [32]: 5.23%
viability, T/C [33]: 6.65%
viability, T/C [34]: 9.55%
viability, T/C [35]: 9.82%
viability, T/C [36]: 9.3%
viability, T/C [37]: 4.43%
viability, T/C [38]: 4.71%
viability, T/C [39]: 5.12%
viability, T/C [40]: 4.78%
viability, T/C [41]: 4.88%
viability, T/C [42]: 4.15%
